Results on eleven compounds are retold here after patent publication US4016159A, “Acylamino-cephem-carboxylic acids containing an amidino or guanidino group in the molecule” (Hoechst Aktiengesellschaft, priority 1973, dated 1977).

The structures appear in SMILES notation. Converted amounts (≈) assume the structure as drawn.

Assay type in all cases: cell-based
One assay has as its system Streptococcus D. The assay can be described thus: Minimum inhibition concentration (MIC), Table 4. The following applies: Streptococcus, Germ: Streptococcus D; read-out: Minimum inhibition concentration (MIC). An excerpt: (§1) Minimum inhibition concentration (MIC) in γ/ml
Assay [1] has as its system Staphylococcus aureus 285. Nature of the assay: Minimum inhibition concentration (MIC), Table 1. The following applies: Staphylococcus aureus, 285, Germ: Staphylococcus aureus 285; read-out: Minimum inhibition concentration (MIC).
Excerpt: as §1
Germ: Staphylococcus aureus 285

The subject of assay [2] is Staphylococcus aureus SG 511. The assay can be described thus: Minimum inhibition concentration (MIC), Table 5. The following applies: Staphylococcus aureus, SG511, Germ: Staphylococcus aureus SG 511; read-out: Minimum inhibition concentration (MIC).
Excerpt: as §1
Germ: Staphylococcus aureus SG 511

The next assay deals with Streptococcus pyogenes A. Nature of the assay: Minimum inhibition concentration (MIC), Table 3. To be noted: Germ: Streptococcus pyogenes A; read-out: Minimum inhibition concentration MIC. The text has this:
Minimum inhibition concentration MIC in γ/ml
Germ: Streptococcus pyogenes A

In the case of `Cc1nc(SCC2=C(C(=O)O)N3C(=O)C(NC(=O)Cc4ccc(C5=NCCCN5)cc4)C3SC2)sc1C` (centres unmarked) [Example 106, 3-[(4,5-dimethylthiazole-2-yl)-thiomethyl]-7-[4-(1,4,5,6-tetrahydropyrimide-2-yl)-phenylacetamido]-Δ3-cephem-4-carboxylic acid], the MIC lay in the range of 10 to 50 µg/mL (≈ 17.9 to 89.7 µM) in the assay with Streptococcus D, 0.156 to 0.391 µg/mL (≈ 0.28 to 0.701 µM) in assay [1], 0.0625 to 0.078 µg/mL (≈ 0.112 to 0.14 µM) in assay [2] and 0.000391 to 0.0078 µg/mL (≈ 0.000701 to 0.014 µM) in the assay with Streptococcus pyogenes A.
On the same counts, the results for `N=C(N)c1ccc(OCC(=O)NC2C(=O)N3C(C(=O)O)=C(CSc4ccccn4)CSC23)cc1` (centres unmarked) [Example 29, 3-[(pyride-2-yl)-thiomethyl]-7-(4-amidinophenoxyacetamido)-Δ 3-cephem-4-carboxylic acid] are 10 to 50 µg/mL (≈ 20 to 100 µM), 0.5 to 1.25 µg/mL (≈ 1 to 2.5 µM), 0.0625 to 0.078 µg/mL (≈ 0.125 to 0.156 µM) and 0.000391 to 0.0078 µg/mL (≈ 0.000783 to 0.0156 µM).
On the same counts, the results for `CSc1nc(SCC2=C(C(=O)O)N3C(=O)C(NC(=O)Cc4ccc(C5=NCCCN5)cc4)C3SC2)nc(-c2ccccc2)n1` (centres unmarked) [Example 69, 3-[(4-methylmercapto-6-phenyl-1,3,5-triazine-2-yl)-thiomethyl]-7-[4-(1,4,5,6-tetrahydropyrimide-2-yl)-phenyl-acetamido]-Δ 3-cephem-4-carboxylicacid] are 10 to 50 µg/mL (≈ 15.4 to 77.2 µM), 0.156 to 0.391 µg/mL (≈ 0.241 to 0.604 µM), 0.0196 to 0.0391 µg/mL (≈ 0.0303 to 0.0604 µM) and 0.000391 to 0.0078 µg/mL (≈ 0.000604 to 0.012 µM).
On the same counts, the results for `O=C(Cc1ccc(C2=NCCCN2)cc1)NC1C(=O)N2C(C(=O)O)=C(CSc3nc4ccccc4s3)CSC12` (centres unmarked) [Example 85, 3-[benzothiazole-2-yl-thiomethyl]-7-[4-(1,4,5,6-tetrahydropyrimide-2-yl)-phenylacetamido]-Δ 3-cephem-4-carboxylic acid] are 10 to 50 µg/mL (≈ 17.2 to 86.2 µM), 0.156 to 0.391 µg/mL (≈ 0.269 to 0.674 µM), 0.0625 to 0.078 µg/mL (≈ 0.108 to 0.135 µM) and 0.000391 to 0.0078 µg/mL (≈ 0.000674 to 0.0135 µM).
As for `CCCCc1csc(SCC2=C(C(=O)O)N3C(=O)C(NC(=O)Cc4ccc(C5=NCCN5)cc4)C3SC2)n1` (centres unmarked) [Example 113], the MIC in the assay on Streptococcus D is 0.196 to 6.25 µg/mL (≈ 0.343 to 10.9 µM); in assay [1], 0.156 to 0.391 µg/mL (≈ 0.273 to 0.684 µM); in assay [2] it was 0.0625 to 0.078 µg/mL (≈ 0.109 to 0.136 µM); in the assay on Streptococcus pyogenes A it was 0.000391 to 0.0078 µg/mL (≈ 0.000684 to 0.0136 µM).
For the compound `CC(C)(C)c1csc(SCC2=C(C(=O)O)N3C(=O)C(NC(=O)Cc4ccc(C5=NCCN5)cc4)C3SC2)n1` (centres unmarked) [Example 111, 3-[(4-tert.butyl-thiazole-2-yl)-thiomethyl]-7-[-4-(imidazoline-2-yl)-phenylacetamido]-Δ3-cephem-4-carboxylic acid], the MIC in the assay with Streptococcus D is 0.196 to 6.25 µg/mL (≈ 0.343 to 10.9 µM); in assay [1], 0.156 to 0.391 µg/mL (≈ 0.273 to 0.684 µM); in assay [2] it was 0.0625 to 0.078 µg/mL (≈ 0.109 to 0.136 µM); with Streptococcus pyogenes A, 0.000391 to 0.0078 µg/mL (≈ 0.000684 to 0.0136 µM).
In the same order, the values of `N=C(N)c1ccc(CC(=O)NC2C(=O)N3C(C(=O)O)=C(CSc4nnc(-c5ccccc5)o4)CSC23)cc1` (centres unmarked) [Example 56, 3-[(5-phenyl-1,3,4-oxadiazole-2-yl)-thiomethyl]-7-(4-amidinophenylacetamido)-Δ 3-cephem-4-carboxylic acid] are 10 to 50 µg/mL (≈ 18.2 to 90.8 µM), 0.156 to 0.391 µg/mL (≈ 0.283 to 0.71 µM), 0.0196 to 0.0391 µg/mL (≈ 0.0356 to 0.071 µM) and 0.000391 to 0.0078 µg/mL (≈ 0.00071 to 0.0142 µM).
With `O=C(Cc1ccc(C2=NCCN2)cc1)NC1C(=O)N2C(C(=O)O)=C(CSc3nc(-c4ccccc4)cs3)CSC12` (centres unmarked) [Example 117, 3-[(4-phenyl-thiazole-2-yl)-thiomethyl]-7-[4-(imidazoline-2-yl)-phenylacetamido]-Δ3-cephem-4-carboxylic acid], the MIC was in the range of 10 to 50 µg/mL (≈ 16.9 to 84.5 µM) in the assay with Streptococcus D, 0.5 to 1.25 µg/mL (≈ 0.845 to 2.11 µM) in assay [1], 0.0625 to 0.078 µg/mL (≈ 0.106 to 0.132 µM) in assay [2] and 0.000391 to 0.0078 µg/mL (≈ 0.000661 to 0.0132 µM) in the assay on Streptococcus pyogenes A.
Consider `CCCCc1nnc(SCC2=C(C(=O)O)N3C(=O)C(NC(=O)Cc4ccc(C(=N)N)cc4)C3SC2)o1` (centres unmarked) [Example 54, 3-[(5-n-butyl-1,3,4-oxadiazole-2-yl)-thiomethyl]-7-(4-amidino-phenylacetamido)-Δ 3-cephem-4-carboxylic acid], for which the MIC in the assay with Streptococcus D fell in the range of 10 to 50 µg/mL (≈ 18.8 to 94.2 µM); in assay [1], 0.156 to 0.391 µg/mL (≈ 0.294 to 0.737 µM); in assay [2], 0.0196 to 0.0391 µg/mL (≈ 0.0369 to 0.0737 µM); in the assay on Streptococcus pyogenes A, 0.000391 to 0.0078 µg/mL (≈ 0.000737 to 0.0147 µM).
Regarding `N=C(N)c1ccc(OCC(=O)NC2C(=O)N3C(C(=O)O)=C(CSc4nncs4)CSC23)cc1` (centres unmarked) [Example 63, 3-[(1,3,4-thiadiazole-2-yl)-thiomethyl]-7-(4amidinophenoxyacetamido)-Δ 3-cephem-4-carboxylic acid], the MIC in the assay with Streptococcus D lay within 10 to 50 µg/mL (≈ 19.7 to 98.7 µM); in assay [1] it was 0.156 to 0.391 µg/mL (≈ 0.308 to 0.772 µM); in assay [2], 0.0625 to 0.078 µg/mL (≈ 0.123 to 0.154 µM); in the assay on Streptococcus pyogenes A it was 0.008 to 0.0156 µg/mL (≈ 0.0158 to 0.0308 µM).
On the same counts, the results for `Cc1nnc(SCC2=C(C(=O)O)N3C(=O)C(NC(=O)COc4ccc(C(=N)N)cc4)C3SC2)o1` (centres unmarked) [Example 38, 3-[(5-methyl-1,3,4-oxadiazole-2-yl)-thiomethyl]-7-(4-amidinophenoxy-acetamido)-Δ 3-cephem-4-carboxylic acid] are 10 to 50 µg/mL (≈ 19.8 to 99.1 µM), 0.156 to 0.391 µg/mL (≈ 0.309 to 0.775 µM), 0.0625 to 0.078 µg/mL (≈ 0.124 to 0.155 µM) and 0.008 to 0.0156 µg/mL (≈ 0.0159 to 0.0309 µM).
